We go through one compound from patent US8598232B2, “Process for the preparation of non-genotoxic diacetylrhein (diacerein) and formulations comprising non-genotoxic diacetylrhein” (Evultis SA, priority 2008, dated 2013).

A short description of this data set: solubility in water of the potassium salt of Diacerein. The class given is physicochemical. The conditions noted are these: in water at neutral pH (pH=7). The method, then: Type A Process: The first step of the process (a.) is to salify the raw Diacerein to obtain a salt of Diacerein which is soluble in water. The water soluble salt of Diacerein is preferably an inorganic salt of Diacerein, more preferably a salt of Diacerein with an alkali metal. In a preferred embodiment, the salt of Diacerein is a potassium salt of Diacerein or a sodium salt of Diacerein. The solubility of potassium salt of Diacerein is around 1 g/50 ml of water at neutral pH (pH=7).

Where a name gives a salt, the structure may show the parent alone.

For `CC(=O)Oc1cccc2c1C(=O)c1c(OC(C)=O)cc(C(=O)O)cc1C2=O` [potassium salt of Diacerein, 1,8-diacetoxy-3-carboxyanthraquinone], the solubility entry is “around 1 g/50 ml”.
